Here are results for 52 molecules from PubChem BioAssay AID1996.

Values after ≈ are worked out from the molar mass of the structure shown.

What is called kinetic solubility is solubility judged after dilution from a stock solution rather than from solid.

The conditions of this data set: buffer; pH 7.4; 200.0 µM.
In the case of `CCC(=O)Nc1cc(C(=O)O)ccc1Sc1ccc(Cl)cc1`, the kinetic solubility was > 50.4 µg/mL. Consider `CCN(CC(=O)N1CCOCC1)S(=O)(=O)c1ccccc1`, for which the kinetic solubility was > 46.9 µg/mL.

For the molecule `CS(=O)(=O)N1CCC(C(=O)Nc2cccc(F)c2)CC1`, the kinetic solubility was > 45.1 µg/mL. Molecule `O=C(NCCNC(=O)c1ccc(Cl)cc1Cl)c1cnccn1` registered a kinetic solubility of 37 µg/mL (≈ 109 µM). For the molecule `O=C1NCCN1CCNS(=O)(=O)c1ccc(F)c(Cl)c1`, the kinetic solubility was > 48.3 µg/mL. As to `O=C(Cc1ccccc1)N1CCN(c2ccccc2F)CC1`, the solubility (kinetic) was > 44.8 µg/mL. Consider `Cc1cc(N(C)Cc2ccccc2)nc2cc(O)ccc12`, for which the kinetic solubility was 30.5 µg/mL (≈ 110 µM). Under `CCN(C(=O)Cn1c([N+](=O)[O-])cnc1C)c1ccccc1` stands > 43.2 µg/mL; under `Cn1cccc1C(=O)NC1CCCCCC1`, > 33 µg/mL. The result for `O=C(CSc1nc2cc(Cl)ccc2o1)NC1CC1` reads > 42.4 µg/mL; that for `Cc1ccc(CNC(=O)CSc2nc3ccccc3[nH]2)cc1`, 31.1 µg/mL (≈ 99.9 µM).

`CCOC(=O)c1cnc(C(F)(F)F)nc1Oc1ccccc1` returned a kinetic solubility of 11.7 µg/mL (≈ 37.5 µM). Under `Cc1ccc(NC(=O)CNS(=O)(=O)c2ccc(F)cc2)cc1C` stands 6.7 µg/mL (≈ 19.9 µM).

`O=C(CSc1ncnc2c1oc1ccccc12)NC1CCCC1` yielded a solubility (kinetic) of 3.4 µg/mL (≈ 10.4 µM).

`NC(=O)COC(=O)CNC(=O)c1sc2ccccc2c1Cl` yielded a solubility (kinetic) of 44.8 µg/mL (≈ 137 µM).

As to `O=C(CCc1ccccc1)Nc1nc2c(F)cc(F)cc2s1`, the solubility (kinetic) turned out to be 4 µg/mL (≈ 12.6 µM). `CCOc1ncccc1C(=O)NCc1ccccc1F`: the kinetic solubility is > 41.1 µg/mL. On to `C1CN(c2nc3nonc3nc2N2CCSCC2)CCO1`, for which the solubility (kinetic) came to 41.1 µg/mL (≈ 133 µM).

Turning to `O=C(NCC1CCCO1)c1ccc(-c2cccc(C(F)(F)F)c2)o1` (configuration not stated), the kinetic solubility was determined as 38.4 µg/mL (≈ 113 µM). On to `Cc1ccc(/C=C/C(=O)Nc2ccc(S(N)(=O)=O)cc2)o1`, for which the kinetic solubility is > 46 µg/mL. Under `O=C1Nc2ccccc2C(=O)N2CCCCC12` (configuration not stated) stands 19.3 µg/mL (≈ 83.8 µM); under `CN(C)S(=O)(=O)c1ccc(NC(=O)CN2CCCCCC2)cc1`, 50.9 µg/mL (≈ 150 µM); under `CC(=O)Nc1nc(-c2ccc3c(c2)CC(C)N3C(=O)C2CC2)c(C)s1` (configuration not stated), 35 µg/mL (≈ 98.5 µM). In the case of `C=CCN(CC=C)S(=O)(=O)c1ccc(NC(=S)NC(=O)C2CC2)cc1`, the solubility (kinetic) is 7.8 µg/mL (≈ 20.6 µM). The result for `Cc1cc(C(=O)NC(Cc2ccccc2)C(=O)O)c(C)o1` (configuration not stated) reads > 43.1 µg/mL. Under `CC(NC(=O)CCCC1CCCCC1)c1ccc(S(N)(=O)=O)cc1` (configuration not stated) stands > 52.9 µg/mL.

Take `O=S(=O)(c1ccccc1)N(Cc1ccccn1)Cc1ccccn1`: the kinetic solubility was > 50.9 µg/mL. The result for `O=C1Nc2ccccc2C1Cc1ccccc1` (configuration not stated) reads 29 µg/mL (≈ 130 µM); that for `COc1cc(C(=O)OCC(=O)NC2CCCCC2)cc(OC)c1OC`, > 52.7 µg/mL; that for `CCc1ccccc1NC(=O)N1CCCc2ccccc21`, 22.8 µg/mL (≈ 81.3 µM).

Consider `O=S1(=O)N=C(N2CCCC2)c2ccccc21`, for which the kinetic solubility is 31.4 µg/mL (≈ 133 µM). `Cc1ccc(OCCNC(=O)c2ccccc2F)cc1` registered a solubility (kinetic) of 36.5 µg/mL (≈ 134 µM). `Br.CC(C)(C)c1cc(C2=CSC3=NCCN23)cc(C(C)(C)C)c1O` showed a solubility (kinetic) of 10.7 µg/mL. The result for `CC(NC(=O)COC(=O)c1ccc2ccccc2n1)c1ccccc1` (configuration not stated) reads 5.3 µg/mL (≈ 15.9 µM). Under `Cc1ccc(NC(=O)CNC(=O)c2cccs2)c(O)c1` stands 21.7 µg/mL (≈ 74.7 µM); under `COC(=O)c1c(-c2cccc(C)c2)csc1NC(=O)C1CCCO1` (configuration not stated), 11.1 µg/mL (≈ 32.1 µM); under `O=C1OC(c2ccc(Cl)cc2)=C/C1=C/c1cccnc1`, 0.7 µg/mL (≈ 2.47 µM).

Take `COc1cccc(-c2ocnc2C(=O)Nc2ccc3c(c2)CCC3)c1`: the solubility (kinetic) was < 0.4 µg/mL. Regarding `O=C(c1cccc(C(F)(F)F)c1)N1CCc2c([nH]c3ccccc23)C1C(F)(F)F` (configuration not stated), the kinetic solubility is < 0.4 µg/mL.

For the molecule `CCOC(=O)C(=CNc1ccc(C#N)cc1)C(=O)OCC`, the solubility (kinetic) was > 43.2 µg/mL. The result for `COC(=O)[C@H](Cc1ccccc1)NC(=O)NCCc1ccc(F)cc1` reads > 51.7 µg/mL; that for `Cl.OC1(c2ccccc2)CCN(Cc2ccccc2)CC1`, 37.6 µg/mL. Under `c1ccc(CN2CCc3nc4ccccc4cc3C2)cc1` stands 33.2 µg/mL (≈ 121 µM); under `O=C(CSc1nnc(C2CC2)n1Cc1ccccc1)N1CCNC1=O`, > 53.6 µg/mL; under `CC(=O)Nc1ccc(C(=O)COC(=O)CCN2C(=O)C3CC=CCC3C2=O)cc1` (configuration not stated), > 59.8 µg/mL.

The molecule `COc1ccccc1OCCC(=O)OCC(=O)Nc1ccc2c(c1)OCCO2` displayed a kinetic solubility of 55.8 µg/mL (≈ 144 µM). Under `Cc1ccc(NC(=O)c2cc3cc(OC(F)(F)F)ccc3[nH]2)cc1` stands < 0.4 µg/mL; under `O=c1c2cc(Cl)cc(Cl)c2nc2n1CCC2`, 35 µg/mL (≈ 137 µM). Take `CC(C)(C)CC(=O)N1CCN(Cc2ccc3c(c2)OCO3)CC1`: the solubility (kinetic) is > 47.8 µg/mL.

`S=C1SCN(Cc2cccnc2)CN1Cc1cccnc1`: the kinetic solubility was > 47.5 µg/mL. As for `Cc1cc(N)ccc1NC(=O)CN1CCOCC1`, the solubility (kinetic) is > 37.4 µg/mL.

In the case of `CCOc1ccc2ccccc2c1C(=O)N[C@@H]1C(=O)N2[C@@H]1SC(C)(C)[C@@H]2C(=O)[O-].[Na+]`, the solubility (kinetic) is > 65.5 µg/mL.
